Laboratory results: paper PMC6680430, “Quantitative Prediction of Human Pharmacokinetics and Pharmacodynamics of CKD519, a Potent Inhibitor of Cholesteryl Ester Transfer Protein (CETP)” (Pharmaceutics, 2019)
Values after ≈ are worked out from the molar mass of the structure shown.

Legend:
[1] = molecular target: T1, cholesteryl ester transfer protein (CETP) (Homo sapiens, UniProt P11597); assay: in vitro potency, CETP inhibition (in-house data); conditions: read-out: IC50 (in vitro potency)
T1 sequence (P11597 18-493): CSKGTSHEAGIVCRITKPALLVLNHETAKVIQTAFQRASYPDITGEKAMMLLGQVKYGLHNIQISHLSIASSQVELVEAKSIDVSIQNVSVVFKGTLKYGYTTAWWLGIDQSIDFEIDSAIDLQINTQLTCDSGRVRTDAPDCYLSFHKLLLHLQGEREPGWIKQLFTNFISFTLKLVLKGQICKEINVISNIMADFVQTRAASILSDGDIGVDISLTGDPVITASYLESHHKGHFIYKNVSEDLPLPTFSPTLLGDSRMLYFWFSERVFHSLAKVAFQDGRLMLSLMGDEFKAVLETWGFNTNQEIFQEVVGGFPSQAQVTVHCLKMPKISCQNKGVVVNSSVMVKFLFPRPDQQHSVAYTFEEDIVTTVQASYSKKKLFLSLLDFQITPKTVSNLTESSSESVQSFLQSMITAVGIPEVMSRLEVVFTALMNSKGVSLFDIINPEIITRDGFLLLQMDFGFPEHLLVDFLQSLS

CETP = assay: human PK/PD modeling and simulation of CETP inhibition
Method: The efficacious dose was defined as the dose accomplishing the threshold in ≥50% of the population, which was determined using the median. Thus, the variability of the parameters was not incorporated in the simulation.

[2] = animal full PK study in hamsters (NCA and PK model); format: in vivo; conditions: hamster; for Tmax: median (range)
Method: Animal PK data for analysis were collected from preclinical studies performed at ChongKunDang laboratory. All animal experiments were performed with relevant guidelines and regulations, and the protocol was approved by the Institutional Animal Care and Use Committee (IACUC) of ChongKunDang (Approval number: S-13-015). A single dose of CKD519 was administered either orally or via intravenous infusion to hamsters (intravenous dose of 0.5 mg/kg, oral dose of 3, 15, or 45 mg/kg, n = 30); rats (intravenous dose of 0.5 mg/kg, oral dose of 5, 15, or 45 mg/kg, n = 20); and monkeys (intravenous dose of 0.1 mg/kg, oral dose of 1, 5, or 30 mg/kg, n = 16). The identical solution was administered to all animal species in the fasted state. Plasma CKD519 concentration was measured before and at 0.083, 0.25, 0.5, 1, 2, 4, 8, and 24 h after administration in hamsters and rats, and before and at 0.083, 0.25, 0.5, 1, 2, 4, 6, 8, 12, 24, 48, and 72 h after administration in monkeys. Two hamsters given identical doses were sampled in a rotating manner.
The plasma samples were stored at −70 °C before the analysis and were thawed at room temperature. […] A sensitive, specific, and validated liquid chromatography coupled with a tandem mass spectrometer (HPLC-MS/MS) assay was used for the determination of CKD519 concentration in animal plasma samples. A structural analogue of CKD519 was used as the internal standard. The validated working range was from 2 ng/mL (the lower limit of quantification, LLOQ) to 20,000 ng/mL. Quality control (QC) samples were analyzed together with the study samples. Intra-day and inter-day precision and accuracy results were within the acceptance criteria based on the Ministry of Food and Drug Safety (MFDS) guidelines. An exploratory data analysis was performed through non-compartmental analysis (NCA) using the NonCompart package (developed by Bae, version 0.4.4) in R (version 3.5.1, The R Foundation, Vienna, Austria).
Using the PK data from each species, nonlinear mixed-effect modeling was conducted using NONMEM (version 7.4, Icon Development Solutions, Ellicott City, MD, USA) reflecting the clues from NCA. The first-order conditional estimation method with interaction (FOCE-I) was used whenever applicable. The adequacy of the model was checked using changes in the objective function value (OFV), visual inspection of various diagnostic plots (goodness-of-fit (GOF) plot), and methods of visual predictive check (VPC) and bootstrap were used for the diagnostics on the model stability and parameter reliability. The significance of model improvement was evaluated using a likelihood-ratio test (LRT). In the nested models, the result was considered statistically significant if the OFV decreased more than 3.84 (p-value < 0.05, degree of freedom (df) = 1) and 5.99 (p-value < 0.05, df = 2). The degree of freedom is defined as the gap of the numbers of parameters of the two subsequent models that are being compared. In the case of non-nested models, the Akaike information criteria (AIC) value was used to select the model that best described the data. R (version 3.5.1., R Foundation for Statistical Computing, Vienna, Austria) was used for data preparation, NCA, graphical analysis, model diagnostics, and statistical summaries.
Initially, a two-compartment model with first-order absorption was developed to describe the biphasic curve, and several absorption structures (e.g., zero-order with absorption lag time, Weibull-type absorption) were applied to the base model if needed. The change in absolute bioavailability (F) by dose levels was also considered. […]

[3] = PK model, final estimate (%RSE)
[4] = intravenous 0.5 mg/kg, NCA, mean ± SD
[5] = two-compartment PK model, final estimate (%RSE)

IC50 [1]: 0.0023 µM
IC50 (CETP; comparator in vivo IC50 22 nM scaled by in vitro potency ratio, read-out: assumed in vivo IC50): 0.037 µM
IC50 reflected in the PD model (CETP; corresponds to 22 nM (reported PD parameter of comparator scenario)): 0.01322 mg/L (≈ 0.022 µM)
IC50 reflected in the PD model (CETP; corresponds to 37 nM (in vitro potency ratio scenario)): 0.02224 mg/L
α (scale parameter of Weibull absorption) [2, 3]: 4.20 (4.14%)
β (shape parameter of Weibull absorption) [2, 3]: 2.62 (4.47%)
AUClast [2, 4]: 8.76 ± 0.635 µg·h/mL
V/F * (V for intravenous) [2, 4]: 138 ± 89.9 mL
ke [2, 4]: 0.0616 ± 0.0446 h⁻¹
t1/2 [2, 4]: 16.9 ± 14.1 h
Tmax ([2]; intravenous 0.5 mg/kg, NCA): 0.083 (0.083–0.083) h
AUClast ([2]; oral 3 mg/kg, NCA, mean ± SD): 6.14 ± 0.471 µg·h/mL
CL/F ([2]; oral 3 mg/kg, NCA, mean ± SD): 34.7 ± 3.08 mL/h
Cmax ([2]; oral 3 mg/kg, NCA, mean ± SD): 0.659 ± 0.0893 µg/mL
V/F ([2]; oral 3 mg/kg, NCA, mean ± SD): 1570 ± 163 mL
ke ([2]; oral 3 mg/kg, NCA, mean ± SD): 0.0223 ± 0.00294 h⁻¹
t1/2 ([2]; oral 3 mg/kg, NCA, mean ± SD): 31.5 ± 4.41 h
Tmax ([2]; oral 3 mg/kg, NCA): 3.5 (3–4) h
AUClast ([2]; oral 15 mg/kg, NCA, mean ± SD): 18.8 ± 4.31 µg·h/mL
CL/F ([2]; oral 15 mg/kg, NCA, mean ± SD): 66.6 ± 20.1 mL/h
Cmax ([2]; oral 15 mg/kg, NCA, mean ± SD): 3.25 ± 0.465 µg/mL
V/F ([2]; oral 15 mg/kg, NCA, mean ± SD): 2460 ± 162 mL
ke ([2]; oral 15 mg/kg, NCA, mean ± SD): 0.0268 ± 0.00613 h⁻¹
t1/2 ([2]; oral 15 mg/kg, NCA, mean ± SD): 26.8 ± 5.23 h
Tmax ([2]; oral 15 mg/kg, NCA): 4 (3–4) h
AUClast ([2]; oral 45 mg/kg, NCA, mean ± SD): 26.7 ± 2.33 µg·h/mL
CL/F ([2]; oral 45 mg/kg, NCA, mean ± SD): 145 ± 9.52 mL/h
Cmax ([2]; oral 45 mg/kg, NCA, mean ± SD): 3.16 ± 0.614 µg/mL
V/F ([2]; oral 45 mg/kg, NCA, mean ± SD): 4330 ± 572 mL
ke ([2]; oral 45 mg/kg, NCA, mean ± SD): 0.0338 ± 0.00311 h⁻¹
t1/2 ([2]; oral 45 mg/kg, NCA, mean ± SD): 20.7 ± 1.76 h
Tmax ([2]; oral 45 mg/kg, NCA): 4 (3–6) h
CL [2, 5]: 0.00377 (7.40%) L/h
Q [2, 5]: 0.00617 (10.3%) L/h
Vc [2, 5]: 0.00472 (9.43%) L
Vp [2, 5]: 0.0924 (9.78%) L
SMILES: COc1cc(F)c(C(C)C)cc1C1=C(CN2C(=O)O[C@H](c3cc(C(F)(F)F)cc(C(F)(F)F)c3)[C@@H]2C)CC(C)(C)CC1 [CKD519]
